This is an account of results in PubChem BioAssay (NCI).

Each structure is given as a SMILES string.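 Five compound concentrations were applied to cells in 96-well plates for 48 hours; endpoints were derived by simple linear interpolation of the resulting dose-response curve. GI50 marks 50% less growth. TGI is the concentration that stops growth completely.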

Among the test systems are CAKI-1 renal; COLO 205 colon; HT29 colon; M14 melanoma; MDA-MB-231 breast; NCI-H226 lung; NCI/ADR-RES ovarian; SF-268 CNS; UACC-62 melanoma; UACC-257 melanoma.
Assay in all cases: growth of human tumour cells (NCI), 48 h

In the case of `CCc1ccc(Nc2cc(C)c3ccc(O)cc3n2)cc1`, the GI50 in the experiment with CAKI-1 renal was 4.92 µM; with COLO 205 colon, 10.4 µM; in the experiment on HT29 colon, 3.57 µM; in the experiment with M14 melanoma it was 5.42 µM; in the experiment on MDA-MB-231 breast, 3.12 µM; with NCI-H226 lung, 19.8 µM. Also, the GI50 in the experiment with NCI/ADR-RES ovarian was 6.44 µM; with SF-268 CNS, 11.2 µM; in the experiment on UACC-62 melanoma, 8.57 µM. Further, the TGI in the experiment with CAKI-1 renal was determined as 19 µM; in the experiment on COLO 205 colon, 24.3 µM; with HT29 colon, 12.5 µM; in the experiment on M14 melanoma it was 18.1 µM; in the experiment with MDA-MB-231 breast, 13.7 µM; in the experiment with NCI-H226 lung it was 54.3 µM. Further, the TGI with NCI/ADR-RES ovarian was more than 100 µM; in the experiment with SF-268 CNS, 30.3 µM; in the experiment on UACC-62 melanoma it was 22.1 µM.
As for `[O]=[V]([OH])([OH])[OH]`, the GI50 in the experiment on CAKI-1 renal was 25.6 µM; in the experiment with COLO 205 colon, more than 100 µM; in the experiment with HT29 colon, more than 100 µM; in the experiment on M14 melanoma, more than 100 µM; in the experiment with MDA-MB-231 breast, more than 100 µM; with NCI-H226 lung, more than 100 µM. The GI50 in the experiment with NCI/ADR-RES ovarian, in the experiment with SF-268 CNS, with UACC-257 melanoma and in the experiment on UACC-62 melanoma was more than 100 µM each time. In addition, the TGI in the experiment on CAKI-1 renal is 70.6 µM; with COLO 205 colon, more than 100 µM; in the experiment with HT29 colon, more than 100 µM; with M14 melanoma it was more than 100 µM; in the experiment with MDA-MB-231 breast it was more than 100 µM; in the experiment on NCI-H226 lung it was more than 100 µM. Further, the TGI with NCI/ADR-RES ovarian, in the experiment with SF-268 CNS, in the experiment with UACC-257 melanoma and in the experiment with UACC-62 melanoma was more than 100 µM each time.
Turning to `CNCc1ccc(-c2cc(-c3nc(-c4ccc(S(=O)(=O)C(C)C)cc4)cnc3N)on2)cc1`, the GI50 is 2.71 µM in the experiment on CAKI-1 renal; 10.8 µM with COLO 205 colon; 0.492 µM in the experiment with HT29 colon; 1.18 µM in the experiment on M14 melanoma; 3.8 µM with MDA-MB-231 breast; 18.8 µM with NCI-H226 lung. Besides, the GI50 in the experiment on NCI/ADR-RES ovarian is 3.08 µM; in the experiment with SF-268 CNS it was 1.41 µM; in the experiment on UACC-257 melanoma it was 3.05 µM; with UACC-62 melanoma, 4.77 µM. The TGI in the experiment with CAKI-1 renal worked out at 21.1 µM; in the experiment on COLO 205 colon, 24.1 µM; with HT29 colon, 1.83 µM; in the experiment with M14 melanoma, 2.6 µM; in the experiment on MDA-MB-231 breast, 19.6 µM; in the experiment on NCI-H226 lung, 44.1 µM. For the same compound, the TGI was more than 74.4 µM in the experiment on NCI/ADR-RES ovarian, 3.29 µM in the experiment on SF-268 CNS, 9.35 µM in the experiment on UACC-257 melanoma and 26.6 µM in the experiment with UACC-62 melanoma.
For the compound `COc1ccc(Nc2cnc3cc(N)cc(N)c3n2)cc1`, the GI50 in the experiment with CAKI-1 renal is 23 µM; with COLO 205 colon, 30.5 µM; with M14 melanoma, 14.5 µM; in the experiment with MDA-MB-231 breast, 10.5 µM; with NCI-H226 lung, 17.2 µM; in the experiment with NCI/ADR-RES ovarian it was 16.4 µM. Further, the results for the GI50 in the experiment with SF-268 CNS, in the experiment with UACC-257 melanoma and with UACC-62 melanoma were 17.7 µM, 19.4 µM and 14.6 µM, respectively. Moreover, the TGI in the experiment on CAKI-1 renal was 64.9 µM; with COLO 205 colon, more than 100 µM; with M14 melanoma, 28 µM; with MDA-MB-231 breast it was 26.2 µM; in the experiment on NCI-H226 lung, 45.8 µM; in the experiment with NCI/ADR-RES ovarian it was 35 µM. Moreover, the TGI in the experiment with SF-268 CNS was found to be 39.8 µM; with UACC-257 melanoma it was 45.9 µM; in the experiment with UACC-62 melanoma, 28.8 µM.
On to `COc1cc(/C=C/c2cc(/C=C/c3ccc(O)c(OC)c3)n(C(=O)c3ccccc3Br)n2)ccc1O`, for which the GI50 was 2.2 µM with CAKI-1 renal; 2.31 µM with COLO 205 colon; 3.07 µM in the experiment on M14 melanoma; 3.59 µM with MDA-MB-231 breast; 3.29 µM in the experiment on NCI-H226 lung; 3.72 µM in the experiment with NCI/ADR-RES ovarian. Also, the GI50 in the experiment with SF-268 CNS is 2.44 µM; with UACC-257 melanoma it was 3.36 µM; in the experiment on UACC-62 melanoma, 2.64 µM. The TGI with CAKI-1 renal is more than 100 µM; with COLO 205 colon, 4.63 µM; in the experiment on M14 melanoma, more than 100 µM; in the experiment with MDA-MB-231 breast, more than 100 µM; in the experiment on NCI-H226 lung, 56.5 µM; with NCI/ADR-RES ovarian it was more than 100 µM. The results for the TGI in the experiment on SF-268 CNS, in the experiment with UACC-257 melanoma and in the experiment with UACC-62 melanoma were more than 100 µM, 40.1 µM and 8.77 µM, respectively.
For the compound `Cc1cc(Cl)nc(N(CCNc2ccnc3cc(Cl)ccc23)Cc2ccco2)n1`, the GI50 in the experiment on COLO 205 colon was 1.64 µM; in the experiment on HT29 colon it was 2.11 µM; in the experiment on M14 melanoma, 1.88 µM; in the experiment on MDA-MB-231 breast, 1.85 µM; in the experiment with NCI/ADR-RES ovarian it was 1.74 µM; in the experiment with SF-268 CNS, 3.22 µM. The GI50 in the experiment with UACC-257 melanoma was 1.97 µM; with UACC-62 melanoma, 1.69 µM. The TGI with COLO 205 colon turned out to be 3.23 µM; in the experiment on HT29 colon, 6.83 µM; in the experiment on M14 melanoma, 3.63 µM; with MDA-MB-231 breast, 3.76 µM; in the experiment with NCI/ADR-RES ovarian, 4 µM; in the experiment on SF-268 CNS, 13.2 µM. In addition, the TGI in the experiment on UACC-257 melanoma was determined as 4.16 µM; in the experiment on UACC-62 melanoma it was 3.27 µM.
With `S=C1SCN(Cc2ccccc2)CN1Cc1ccco1`, the GI50 with CAKI-1 renal was 4.81 µM; with COLO 205 colon, 4.4 µM; in the experiment on HT29 colon, 3.17 µM; with M14 melanoma it was 4.04 µM; in the experiment with MDA-MB-231 breast it was 3.17 µM; in the experiment with NCI/ADR-RES ovarian, 17.9 µM. Moreover, the GI50 is 3.59 µM in the experiment on SF-268 CNS, 6.28 µM in the experiment with UACC-257 melanoma and 4.75 µM in the experiment with UACC-62 melanoma. Also, the TGI in the experiment on CAKI-1 renal is 17.4 µM; in the experiment on COLO 205 colon, 14.3 µM; with HT29 colon it was 13.9 µM; with M14 melanoma, 19.3 µM; in the experiment with MDA-MB-231 breast it was 12.3 µM; in the experiment on NCI/ADR-RES ovarian, more than 100 µM. Moreover, the figures for the TGI in the experiment with SF-268 CNS, in the experiment with UACC-257 melanoma and with UACC-62 melanoma were 17.1 µM, 20.7 µM and 18.7 µM, respectively.
`COc1ccccc1CNCCN1C(=O)c2ccc3c4c(ccc(c24)C1=O)C(=O)N(CCNCc1ccccc1OC)C3=O`: the GI50 in the experiment with CAKI-1 renal is 1.64 µM; in the experiment on COLO 205 colon it was 0.169 µM; in the experiment with HT29 colon, 0.215 µM; in the experiment on M14 melanoma, 0.189 µM; in the experiment with MDA-MB-231 breast, 0.277 µM; in the experiment with NCI-H226 lung, 1.26 µM. Moreover, the GI50 was 0.283 µM in the experiment on NCI/ADR-RES ovarian, 0.269 µM with SF-268 CNS, 0.196 µM in the experiment with UACC-257 melanoma and 1.77 µM in the experiment with UACC-62 melanoma. For the same compound, the TGI in the experiment with CAKI-1 renal came out at 5.26 µM; with COLO 205 colon it was 0.345 µM; in the experiment with HT29 colon, 0.447 µM; in the experiment on M14 melanoma it was 0.378 µM; with MDA-MB-231 breast, 0.817 µM; in the experiment on NCI-H226 lung, 2.77 µM. Also, the TGI is 0.831 µM in the experiment with NCI/ADR-RES ovarian, 1.12 µM with SF-268 CNS, 0.387 µM with UACC-257 melanoma and 3.39 µM with UACC-62 melanoma.
